{"source": "patent US20120040896A1", "about": "“COMPOSITIONS, METHODS AND USES FOR MODULATION OF BRCA 1” (THE REGENTS OF THE UNIVERSITY OF COLORADO, priority 2008, published 2012)", "type_in_all_cases": "cell-based, human", "key": {"BRCA1": {"tested_on": "BRCA1", "experiment": "Immunoblot of BRCA1 protein levels in breast carcinoma cells", "settings": "for BRCA1 protein levels under proteasome inhibition: MCF7, steroid depleted medium, 0.5, 4 or 8 hours; for effect of pretreatment on E2-induced accumulation of BRCA1 protein: MCF7, steroid depleted, pretreatment before E2", "protocol": "(§1) MCF7 cells were obtained from the American Type Culture Collection (#HTB-22). T47D cells were provided by Baylor College of Medicine. Both lines were normally maintained at 37° C. with 5% CO2 in DMEM with 1 mM L-glutamine (Gibco) supplemented with 10% Fetalclone serum (HyClone) and 1% non-essential amino acids (Gibco). For steroid depleted conditions (denoted as CSS), cells were cultured in phenol-free DMEM with 1 mM L-glutamine and 25 mM HEPES supplemented with 10% charcoal/dextran treated fetal bovine serum (Gemini Bioproducts). 17-β-estradiol and MG132 were obtained from Sigma-Aldrich. Cycloheximide, U0126, and p38 inhibitor were obtained from Calbiochem. ICI 182780 was obtained from Tocris Biosciences. LY294002 was obtained from Cell Signaling Technology.\n(§2) Whole cell lysates were prepared by washing cells twice with PBS and then scraping into ice-cold PBS. Pelleted cells were resuspended in modified RIPA buffer (50 mM Tris base, 150 mM NaCl, 2 mM EDTA, 1% Triton X-100, 0.5% Na-deoxycholate, 0.1% SDS, 50 mM NaF, 5 mM Na3VO4, plus Roche protease inhibitor tablets). Lysates were incubated for 30 minutes on ice, clarified by centrifugation, and protein concentration determined by Bradford assay (BioRad). Where indicated, lysates harvested without phosphatase inhibitors were treated with λ-phosphatase (New England Biolabs) according to manufacturer's instructions. 100 μg of total protein was loaded per lane for Tris-glycine SDS-PAGE. Samples were transferred to PVDF membrane (Millipore) for 200 volt-hours at 50 V constant at 16° C. Membranes were blocked in 5% dry non-fat milk (Carnation) dissolved in either PBS or TBS (25 mM Tris pH 8.0, 135 mM NaCl, 2.5 mM KCl). Primary antibody incubations were performed overnight at 4° C. diluted in either 0.5% dry non-fat milk/PBS-Tween-20 0.1% or in 3% BSA (Santa Cruz Biotechnology)/TBS-Tween-20 0.1%. Antibody suppliers are: BRCA1 (Ab-4 and Ab-1, Calbiochem); BARD1 (Bethyl Laboratories); Lamin A/C, phospho-(Ser/Thr) Akt Substrate, phospho-5473 Akt, and Akt (Cell Signaling Technology); Cyclin D1 (Lab Vision Corp.); Tubulin (Chemicon). Secondary antibodies were obtained from Amersham/GE Healthcare. Densitometry was performed on 600 dpi TIFF scans of Western blot films with Quantity One software (BioRad). Density values for BRCA1 and BARD1 in each sample were normalized by the value of the corresponding Lamin A/C density as a control for loading."}, "BARD1": {"tested_on": "BARD1", "experiment": "Immunoblot of BARD1 protein levels in breast carcinoma cells", "settings": "for BARD1 protein levels under proteasome inhibition: MCF7, steroid depleted medium, 0.5, 4 or 8 hours; for effect of pretreatment on E2-induced accumulation of BARD1 protein: MCF7, steroid depleted, pretreatment before E2", "protocol": "as §1, §2"}, "Akt": {"tested_on": "Akt", "experiment": "Immunoblot of phosphorylated Akt (pS473), Akt activation", "settings": "MCF7, steroid depleted medium, after treatment", "protocol": "as §1\nWhole cell lysates were prepared by washing cells twice with PBS and then scraping into ice-cold PBS. Pelleted cells were resuspended in modified RIPA buffer (50 mM Tris base, 150 mM NaCl, 2 mM EDTA, 1% Triton X-100, 0.5% Na-deoxycholate, 0.1% SDS, 50 mM NaF, 5 mM Na3VO4, plus Roche protease inhibitor tablets). Lysates were incubated for 30 minutes on ice, clarified by centrifugation, and protein concentration determined by Bradford assay (BioRad). […] Densitometry was performed on 600 dpi TIFF scans of Western blot films with Quantity One software (BioRad). […]"}}, "note": "Where a SMILES comes first, the peptide text is derived from it. The star is where a group is joined. Cbz = O=C(OCc1ccccc1)*", "data": [{"compound": "CC(C)C[C@@H](C=O)NC(=O)[C@H](CC(C)C)NC(=O)[C@H](CC(C)C)NC(=O)OCc1ccccc1", "note": "[MG132] (Cbz-Leu-Leu-Leu-aldehyde)", "values": [{"measurement": "BRCA1 protein levels under proteasome inhibition", "setting": "BRCA1", "result": "accumulation"}, {"measurement": "BARD1 protein levels under proteasome inhibition", "setting": "BARD1", "result": "accumulation"}, {"measurement": "Akt activation (phosphorylated Akt pS473)", "setting": "Akt", "result": "dramatic activation"}]}, {"compound": "CC(C)C[C@H](NC(=O)[C@H](Cc1ccccc1)NC(=O)c1cnccn1)B(O)O", "note": "[bortezomib]", "values": [{"measurement": "BRCA1 protein levels under proteasome inhibition", "setting": "BRCA1", "result": "rapidly increased"}, {"measurement": "BARD1 protein levels under proteasome inhibition", "setting": "BARD1", "result": "rapidly increased"}, {"measurement": "Akt activation (phosphorylated Akt pS473)", "setting": "Akt", "result": "only minor activation"}]}, {"compound": "N#CC(=C(/N)Sc1ccccc1N)/C(C#N)=C(/N)Sc1ccccc1N", "note": "[MEK 1/2]", "values": [{"measurement": "effect of pretreatment on E2-induced accumulation of BRCA1 protein", "setting": "BRCA1", "result": "no effect"}]}, {"compound": "C[C@]12CC[C@@H]3c4ccc(O)cc4C[C@@H](CCCCCCCCC[S+]([O-])CCCC(F)(F)C(F)(F)F)[C@H]3[C@@H]1CC[C@@H]2O", "note": "(some centres unmarked) [ICI 182780]", "values": [{"measurement": "effect of pretreatment on E2-induced accumulation of BRCA1 protein", "setting": "BRCA1", "result": "abolished"}, {"measurement": "effect of pretreatment on E2-induced accumulation of BARD1 protein", "setting": "BARD1", "result": "abolished"}]}, {"compound": "C[C@@H]1C[C@@H]([C@H](O)CC2CC(=O)NC(=O)C2)C(=O)[C@@H](C)C1", "note": "[cycloheximide, Cycloheximide]", "values": [{"measurement": "effect of pretreatment on E2-induced accumulation of BRCA1 protein", "setting": "BRCA1", "result": "did not prevent"}, {"measurement": "effect of pretreatment on E2-induced accumulation of BARD1 protein", "setting": "BARD1", "result": "did not prevent"}]}]}
